What all share (type): cell-based
The subject of assay [1] is Acanthamoeba. As to the kind of experiment: Adhesion of amoebae to corneal epithelial cell monolayer. The following applies: saccharide present in media.
Assay [2] relates to Acanthamoeba-conditioned medium (ACM). Nature of the assay: CPE assay with Acanthamoeba-conditioned medium (ACM). The protocol: To determine whether the mechanism modulating the CPE produced by intact amoeba and amoeba-conditioned medium (ACM) are distinct, CPE and assays were also performed using ACM in the presence and the absence of saccharides. To produce ACM, exponentially growing parasites (>95% trophozoites) in PYG media (Proteose Peptone-yeast extract-glucose , J. T. Bornes et al., J. Parasitol. 56:904-906, 1970) were rinsed twice with SFB medium and incubated in serum-free SFB medium at concentrations between 2×10^5 to 1×10^6 cells/ml in a CO2 incubator for 24 hours. After removing the parasites by centrifugation, each supernatant was analyzed for its ability to induce CPE. Saccharides (α-Man and GIcNAc, 50 mM) were added either to the ACM after it was produced or to serum-free medium used to produce an ACM. The ACM produced in the presence of the saccharides was also analyzed after removal of the saccharides by centrifugation through Centricon 3 microconcentrators (Amicon Inc., Beverly, Mass.).
To determine the role of the parasitic secretory factors in the cytopathogenic mechanism, chromium release and CPE assays were performed using ACM. In this study, parasites were incubated in the SFB media for 24 hours, centrifuged to remove parasites and the conditioned medium was tested for its ability to produce cytolysis and CPE. The ACM produced remarkable CPE. […] Approximately 6 to 8 hours following the incubation of the monolayer with the ACM, the cell sheet at the edges of the monolayer began to lift and roll inwards and eventually the entire monolayer lifted en bloc from the dish. These observations were similar to those seen when the monolayers were incubated with trophozoites in the presence of α-Man. Unlike the CPE induced by intact amoeba, the CPE induced by the ACM was not inhibited by either α-Man or GlcNAc when the sugars were added to the ACM after it was produced. In the next set of experiments, ACM was produced in the presence of α-Man or GIcNAc and was tested for CPE-inducing activity. […] In addition, the filtrate and retentate obtained after filtering the ACM in Centricon 3 microconcentrators were tested for CPE-inducing activity. When the ACM was produced in the absence of either sugar, substantially all of the CPE-inducing activity was found in the retentate obtained after Centricon filtration.

Assay [3] concerns Acanthamoeba. Nature of the assay: Acanthamoeba-induced CPE assay, primary cultures of corneal epithelium. The following applies: primary cultures as target cells. On the procedure: In vitro cytopathic assays were performed using cell cultures of corneal epithelium as target cells. Primary cell cultures of rabbit corneal epithelium were prepared according to published protocols (M. M. Jumblatt, Invest. Opthalmol. Visual Sci. 24:1139-43, 1983) using rabbit eyes from Pel-Freez Biologicals (N. Panjwani et al., Invest. Opthalmol. Visual Sci. 31:689-695, 1990) (Rogers, AK). Generally, seventy-five eyes were processed at a time. Primary cultures have limited life span and can only be passaged 2 to 3 times without significant alteration in cell morphology.
To characterize the role of carbohydrate-mediated host-parasite interactions in the Acanthamoeba-induced cytotoxicity of host cells, in vitro cytopathic assays were performed using both primary and immortalized cultures of corneal epithelium as host cells. Immortalized cells were assayed as confluent cultures in 24-well plates, and primary cells were assayed as confluent cells in 35-mm dishes or 6-well plates.
The parasites (>95% trophozoites) were rinsed three times in a serum-free Eagle's minimum essential medium supplemented with 0.4% bovine serum albumin (SFB) and aliquots of the parasite suspension (0.2×10^5 to 1×10^6 parasites/ml SFB medium, 300 μl/well for 24-well plates and 500 μl/well for 6-well plates or 35-mm dishes) were added to wells of confluent epithelial cultures which had been rinsed and preincubated in SFB medium for 2 hours. The plates were incubated at 37° C. in a CO2 incubator and periodically examined under a phase-contrast microscope for the presence of cell-free plaques in the monolayer for up to 28-30 hours. Control wells contained host cells without the parasites. At the end of the incubation period, the cultures were stained with Giemsa (Diff-Quik, Dade Diagnostic Inc., Aguada, PR). Approximate cell density in each well was estimated by scanning the stained plates in a calibrated, computer-assisted Bio-Image Scanner (Millipore, Ann Arbor, Mich.). Cytopathic effect (CPE) was expressed as percentage of the optical density by the following formula: [formula]
Primary cultures were less susceptible to amoeba-induced CPE, requiring 1×10^6 parasites/ml to completely destroy the monolayer within 24 hours. This parasite concentration was five times higher than that required to produce the same effect when immortalized cultures were used as target host cells.

In assay [4] the test system is Acanthamoeba. Nature of the assay: Acanthamoeba-induced cytopathic effect (CPE) assay, immortalized corneal epithelial cultures. The following applies: for Inhibition of amoeba-induced CPE: no concentration stated.

These results are taken from US6037333A, “Microbe-inhibiting compositions” (Trustees of Tufts College, priority 1998, dated 2000).

For `CO[C@H]1O[C@H](CO)[C@@H](O)[C@H](O)[C@@H]1O` [Methyl-α-D-mannopyranoside], the “Adhesion of amoebae to the cell monolayer in presence of saccharide” value in the assay on Acanthamoeba [1] is reported as “did not adhere”. For the same compound, the “CPE-inducing activity of ACM produced in SFB containing the saccharide” value in assay [2] (saccharide 50 mM in medium used to produce ACM) is “strongly induced CPE”. Further, the “Inhibition of ACM-induced CPE” value in assay [2] (sugar (50 mM) added to the ACM after it was produced) was “not inhibited”. Besides, the “Inhibition of amoeba-induced CPE” value is reported as “inhibited CPE” in the assay with Acanthamoeba [3], “potent inhibitors” with Acanthamoeba [4] (listed as Methyl-α-mannopyranoside) and “nearly identical” in the assay on Acanthamoeba [4] (listed as α-Man). Besides, the inhibition (as a rule, the relative decrease from the control value, in per cent) at 310 µM in the assay on Acanthamoeba [4] (Acanthamoeba, in Oryctolagus cuniculus, at 0.31 mM, read-out: Inhibition of cytopathic effect (% inhib. at indicated conc.)) came out at 61%. Moreover, the “Time at which cell layer began to lift from the periphery” value in the assay with Acanthamoeba [4] (incubation with amoebae in presence of saccharide, without it nearly complete loss after about 20 hours) fell in the range of 20 to 28 h. Besides, the “Amoeba-induced cytolysis of corneal epithelial cells (microscopy, words)” value in the assay with Acanthamoeba [4] (saccharide present in media) is “substantially inhibited”. Besides, the “Cell-free plaques in monolayer” value in the assay with Acanthamoeba [4] (saccharide present in media) is on record as “not detected”.
